According to the CheMixHub viscosity set:

Test: xn = mol fraction of the nth substance listed

CN(C)CCCN + O
viscosity [mPa·s]
Settings	293.15 K	303.15 K	308.15 K	313.15 K	318.15 K	323.15 K
100 kPa, x1 = 0.1	8.105	5.084	–	3.421	–	2.362
100 kPa, x1 = 0.1998	13.62	8.093	–	5.329	–	3.605
100 kPa, x1 = 0.2998	11.49	7.049	–	4.586	–	3.142
100 kPa, x1 = 0.4004	7.437	4.84	–	3.296	–	2.359
100 kPa, x1 = 0.5003	4.661	3.222	–	2.339	–	1.759
100 kPa, x1 = 0.5989	3.168	2.25	–	1.781	–	1.363
100 kPa, x1 = 0.6992	2.225	1.7	–	1.333	–	1.076
100 kPa, x1 = 0.8005	1.691	1.294	–	1.046	–	0.8667
100 kPa, x1 = 0.8999	1.327	1.07	–	0.8872	–	0.75
101 kPa, x1 = 0.0488	–	2.376	–	–	–	–
101 kPa, x1 = 0.0996	–	4.856	3.946	3.263	2.739	2.323
101 kPa, x1 = 0.0999	–	5.01	–	–	–	–
101 kPa, x1 = 0.147	–	7.175	–	–	–	–
101 kPa, x1 = 0.1504	–	7.078	5.637	4.578	3.791	3.16
101 kPa, x1 = 0.1743	–	7.96	–	–	–	–
101 kPa, x1 = 0.1994	–	8.356	6.623	5.341	4.372	3.624
101 kPa, x1 = 0.1999	–	8.348	–	–	–	–
101 kPa, x1 = 0.2247	–	8.378	–	–	–	–
101 kPa, x1 = 0.2497	–	8.194	–	–	–	–
101 kPa, x1 = 0.2521	–	8.394	6.631	5.351	4.383	3.636
101 kPa, x1 = 0.2744	–	7.787	–	–	–	–
101 kPa, x1 = 0.2995	–	7.688	6.133	4.967	4.089	3.402
101 kPa, x1 = 0.2998	–	7.275	–	–	–	–
101 kPa, x1 = 0.3809	–	6.001	4.861	4.005	3.354	2.831
101 kPa, x1 = 0.5	–	3.919	3.282	2.77	2.372	2.049
101 kPa, x1 = 0.5994	–	2.525	2.116	1.884	1.65	1.461
101 kPa, x1 = 0.6826	–	1.939	1.701	1.502	1.339	1.201
101 kPa, x1 = 0.7798	–	1.492	1.329	1.191	1.077	0.9811
101 kPa, x1 = 0.8918	–	1.163	1.042	0.9578	0.8777	0.8099
